For the experiment, the target named is T1, Human TRPC6 (Homo sapiens, UniProt Q9Y210).
T1 construct: expressed in transfected cells
T1 sequence (Q9Y210 1-931): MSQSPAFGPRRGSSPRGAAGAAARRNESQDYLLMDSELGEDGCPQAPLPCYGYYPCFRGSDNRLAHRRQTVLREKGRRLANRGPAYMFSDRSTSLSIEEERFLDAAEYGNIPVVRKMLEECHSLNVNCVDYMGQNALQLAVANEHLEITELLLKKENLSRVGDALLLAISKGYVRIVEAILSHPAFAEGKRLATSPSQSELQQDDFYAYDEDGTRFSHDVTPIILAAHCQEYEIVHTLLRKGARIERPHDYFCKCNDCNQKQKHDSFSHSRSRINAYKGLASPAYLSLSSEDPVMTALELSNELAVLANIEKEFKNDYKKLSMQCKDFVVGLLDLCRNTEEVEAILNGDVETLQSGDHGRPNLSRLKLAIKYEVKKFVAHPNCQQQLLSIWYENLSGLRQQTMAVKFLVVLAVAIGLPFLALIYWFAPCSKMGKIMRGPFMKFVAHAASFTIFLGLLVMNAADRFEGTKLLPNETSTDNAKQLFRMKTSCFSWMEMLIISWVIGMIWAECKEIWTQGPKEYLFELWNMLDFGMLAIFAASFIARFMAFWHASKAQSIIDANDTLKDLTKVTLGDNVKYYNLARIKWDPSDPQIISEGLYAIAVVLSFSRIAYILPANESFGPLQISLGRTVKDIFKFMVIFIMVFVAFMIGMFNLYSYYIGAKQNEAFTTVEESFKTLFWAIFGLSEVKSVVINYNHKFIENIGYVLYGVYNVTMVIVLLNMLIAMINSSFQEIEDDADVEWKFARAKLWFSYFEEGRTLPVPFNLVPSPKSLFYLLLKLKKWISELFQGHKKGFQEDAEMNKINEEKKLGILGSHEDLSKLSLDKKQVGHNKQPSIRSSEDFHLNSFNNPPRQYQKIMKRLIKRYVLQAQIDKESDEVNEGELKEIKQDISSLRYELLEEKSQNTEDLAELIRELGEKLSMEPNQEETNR
As to the kind of experiment: Evaluation of TRPC6 channel inhibitory activity (1), FLIPR Calcium 5 Assay Kit, OAG stimulation (Compound Nos. 1-1293). It counts as cell-based. The following applies: Human TRPC6 stably-expressing cells, OAG 30 μM, FLIPR Calcium 5 Assay Kit; read-out: Inhibitory activity (pIC50 class) (converted). The procedure, abridged:
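Stable human TRPC6 line; fluorescent Ca2+ dye loading, then 20 min compound exposure before 30 μM OAG trigger. Peak-minus-baseline signal converted to % inhibition against untreated and unstimulated wells; potency given as pIC50 band.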
`Cn1nc(N2CCOCC2)cc1Oc1cc(C#N)ccc1-c1ncc(CN)cn1` [compound 772, 4-[5-(aminomethyl)pyrimidin-2-yl]-3-(2-methyl-5-morpholin-4-ylpyrazol-3-yl)oxybenzonitrile]: the IC50 is < 0.01 µM. For `Cn1nc(N2CCOCC2)cc1Oc1cc(F)ccc1-c1ccc(CN)cn1` [compound 976, [6-[4-fluoro-2-(2-methyl-5-morpholin-4-ylpyrazo1-3-yl)oxyphenyl]pyridin-3-yl]methanamine], the IC50 is 0.01 to 1 µM. As for `Cc1cnc(N2CCOCC2)cc1Oc1cc(C#N)ccc1-c1ncc(CN)cn1` [compound 901, 4-[5-(aminomethyl)pyrimidin-2-yl]-3-(5-methyl-2-morpholin-4-ylpyridin-4-yl)oxybenzonitrile], the IC50 was > 1 µM. On to `Cn1nc(C2CC2)cc1Oc1cc(C#N)ccc1-c1ncc([C@@H](O)CN)cn1` [compound 372, 4-[5-[(1R)-2-amino-1-hydroxyethyl]pyrimidin-2-yl]-3-(5-cyclopropyl-2-methylpyrazol-3-yl)oxybenzonitrile], for which the IC50 is < 0.01 µM. Take `CCNc1cc(Oc2cc(C#N)ccc2-c2ncc(CN)cn2)cc(C)n1` [compound 643, 4-[5-(aminomethyl)pyrimidin-2-yl]-3-[2-(ethylamino)-6-methylpyridin-4-yl]oxybenzonitrile]: the IC50 is 0.01 to 1 µM. On to `Cc1nc(NCC(F)(F)F)cc(Oc2cc(C#N)ccc2-c2ncc(CN)cn2)n1` [compound 640, 4-[5-(aminomethyl)pyrimidin-2-yl]-3-[2-methyl-6-(2,2,2-trifluoroethylamino)pyrimidin-4-yl]oxybenzonitrile], for which the IC50 was 0.01 to 1 µM. As for `Cc1nn(CC(C)C)cc1Oc1cc(C#N)ccc1-c1ncc(CCN)cn1` [compound 801, 4-[5-(2-aminoethyl)pyrimidin-2-yl]-3-[3-methyl-1-(2-methylpropyl)pyrazol-4-yl]oxybenzonitrile], the IC50 was < 0.01 µM.

As to `N#Cc1ccc(-c2ccc(CCN)cn2)c(Oc2cnnc(Cl)c2)c1` [Compound 87, 4-[5-(2-aminoethyl)pyridin-2-yl]-3-(6-chloropyridazin-4-yl)oxybenzonitrile], the IC50 was > 1 µM. Regarding `N#Cc1ccc(-c2ccc([C@@H](O)CN)cn2)c(Cn2cncc2-c2ccccc2)c1` [compound 1136, 4-[5-[(1R)-2-amino-1-hydroxyethyl]pyridin-2-yl]-3-[(5-phenylimidazol-1-yl)methyl]benzonitrile], the IC50 was > 1 µM. Take `Cn1nc(-c2ccccn2)cc1Oc1cc(C#N)ccc1-c1ccc(CCN)cn1` [Compound 176, 4-[5-(2-aminoethyl)pyridin-2-yl]-3-(2-methyl-5-pyridin-2-ylpyrazol-3-yl)oxybenzonitrile]: the IC50 is < 0.01 µM. Turning to `Cc1cccc(-c2cc(Oc3cc(C#N)ccc3-n3cc([C@@H](O)CN)cn3)nc(C)n2)c1` [Compound 205, 4-[4-[(1R)-2-amino-1-hydroxyethyl]pyrazol-1-yl]-3-[2-methyl-6-(3-methylphenyl)pyrimidin-4-yl]oxybenzonitrile], the IC50 was < 0.01 µM. For `Cn1nc(-c2cncs2)cc1Oc1cc(C#N)ccc1-c1ncc(CCN)cn1` [compound 951, 4-[5-(2-aminoethyl)pyrimidin-2-yl]-3-[2-methyl-5-(1,3-thiazol-5-yl)pyrazol-3-yl]oxybenzonitrile], the IC50 is < 0.01 µM.

In the case of `CCN(C)c1cc(Oc2cc(C#N)ccc2-c2ncc(CCN)cn2)n(C)n1` [compound 774, 4-[5-(2-aminoethyl)pyrimidin-2-yl]-3-[5-[ethyl(methyl)amino]-2-methylpyrazol-3-yl]oxybenzonitrile], the IC50 was < 0.01 µM. Regarding `Cc1nc(Oc2cc(C#N)ccc2-n2cc([C@@H](O)CN)cn2)cc(-c2ccccc2F)n1` [compound 339, 4-[4-[(1R)-2-amino-1-hydroxyethyl]pyrazol-1-yl]-3-[6-(2-fluorophenyl)-2-methylpyrimidin-4-yl]oxybenzonitrile], the IC50 was 0.01 to 1 µM.

Values taken from patent US20230167073A1 (Teijin Pharma Limited, priority 2020, published 2023).
